Test results published in patent US20230212180A1, “SUBSTITUTED PYRAZINE COMPOUND, PHARMACEUTICAL COMPOSITION COMPRISING SAME, AND USE THEREOF” (Sichuan Kelun-Biotech Biopharmaceutical Co., Ltd., priority 2020, published 2023).
pIC50: −log10 of the molar value. Like-named read-outs stand apart in the source and are kept apart here.

Legend:
CYP1A2 = target: T1, CYP1A2 (Homo sapiens, UniProt P05177); assay: Biochemical assay for CYP enzyme inhibition, P450-Glo CYP1A2 Screening System; format: in vitro ADME; conditions: for IC50: estimated from percentage inhibition, read-out: IC50 (μM) CYP1A2
T1 construct: purchased Promega
T1 sequence (P05177 1-516): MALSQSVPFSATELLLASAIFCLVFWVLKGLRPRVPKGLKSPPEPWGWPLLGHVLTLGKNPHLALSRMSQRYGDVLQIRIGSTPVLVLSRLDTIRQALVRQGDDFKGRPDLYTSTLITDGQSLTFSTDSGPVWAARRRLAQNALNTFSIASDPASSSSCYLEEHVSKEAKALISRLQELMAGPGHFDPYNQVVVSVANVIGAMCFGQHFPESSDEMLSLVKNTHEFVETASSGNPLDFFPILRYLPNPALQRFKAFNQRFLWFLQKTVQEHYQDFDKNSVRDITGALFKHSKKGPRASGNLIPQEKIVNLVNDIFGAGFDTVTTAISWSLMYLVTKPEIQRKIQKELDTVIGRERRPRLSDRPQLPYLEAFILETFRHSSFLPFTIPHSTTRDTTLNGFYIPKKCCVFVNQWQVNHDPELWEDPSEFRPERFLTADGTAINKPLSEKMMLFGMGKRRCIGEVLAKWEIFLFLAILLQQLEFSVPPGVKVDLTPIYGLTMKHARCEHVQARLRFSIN
Protocol: (§1) Test Example 5: Biochemical Assay for CYP Enzyme (Cytochrome P450) Inhibition
P450-Glo™ CYP1A2 Screening System, (Promega);
(§2) BMG PHERAstar FS Luminescent.
(§3) The experiments were carried out separately according to the instructions of the kits. The steps were as follows:
3.1. Inhibition Against CYP1A2:
(§4) Test group: The test compounds at different concentrations were added into a microplate, and Luciferin-ME (100 μM), K3PO4 (100 mM), and CYP1A2 (0.01 μmol/μL) were added into each well, and pre-incubated at room temperature for 10 min. Thereafter, an NADPH regeneration system was added. The mixture was reacted at room temperature for 30 min. Finally, an equal volume of detection buffer was added and incubated at room temperature for 20 min, followed by chemiluminescence detection.
(§5) Negative control group: The experimental method for the negative control group was the same as that for the test group, except that the test compound was not added.
Blank control group: The experimental method for the blank control group was the same as that for the test group, except that the test compound was not added and that CYP1A2 was replaced with CYP1A2 Membrance (0.01 μmol/μL).
(§6) Percentage inhibition=(1−(the chemiluminescent signal value of the test compound group at a certain test concentration−the chemiluminescent signal value of the blank control group)/(the chemiluminescent signal value of the negative control group−the chemiluminescent signal value of the blank control group))×100%.
(§7) When the percentage inhibition was between 30% and 80%, a single value or a value range of the half maximal inhibitory concentration (IC50) of the compound against the CYP enzyme was estimated based on the following equation: IC50=X×(1−percentage inhibition)/percentage inhibition, wherein X was the test concentration of the compound.

CYP2D6 = target: T2, CYP2D6 (Homo sapiens, UniProt P10635); assay: Biochemical assay for CYP enzyme inhibition, P450-Glo CYP2D6 Screening System; format: in vitro ADME; conditions: for IC50: estimated from percentage inhibition, read-out: IC50 (μM) CYP2D6
T2 construct: purchased Promega
Protocol: as §1
P450-Glo™ CYP2D6 Screening System, (Promega);
as §2, §3
3.2. Inhibition Against CYP2D6:
as §4, with “and Luciferin-ME EGE (3 μM), K3PO4” for “and Luciferin-ME (100 μM), K3PO4”, “mM), and CYP2D6 (5 nM) were added” for “mM), and CYP1A2 (0.01 μmol/μL) were added”, “reacted at 37° C. for 30” for “reacted at room temperature for 30”
as §5
Blank control group: The experimental method for the blank control group was the same as that for the test group, except that the test compound was not added and that CYP2D6 was replaced with CYP2D6 Membrance (5 nM).
as §6, §7

hERG = target: T3, hERG (Homo sapiens, UniProt Q12809); assay: Biochemical assay for hERG inhibition (Predictor hERG Fluorescence Polarization Assay Kit); format: binding
T3 construct: purchased ThermoFisher
Protocol: Test Example 3: Biochemical Assay for hERG Inhibition
kit: Predictor™ hERG Fluorescence Polarization Assay Kit (ThermoFisher) containing:
Compound E4031 as a positive control;
tracer concentration: 1 nM;
incubation duration: 2 hours;
parameters for microplate reader: BMG PHERAstar FS fluorescence microplate reader.
Test group: The test compounds at different concentrations were added into a microplate containing hERG cell membrane, and the tracer with a high affinity for hERG was then added into each well. The microplate was incubated at 25° C. for 2 hours before detection of the change in fluorescence polarization value (mP) (excitation wavelength: 540 nm; emission wavelength: 590 nm) using a multi-mode microplate reader.
Positive control group: The experimental method for the positive control group was the same as that for the test group, except that the test compound was replaced with 30 μM Compound E4031.
Blank control group: The experimental method for the blank control group was the same as that for the test group, except that the test compound was replaced with the hERG buffer and that the hERG cell membrane was not added.
Based on the data ratios, the percentage inhibition (%) of the compounds of the present disclosure against hERG at different concentrations was calculated and the range of the half maximal inhibitory concentration (IC50) of the compounds was determined. Percentage inhibition (%)=(1−(mP of the test compound−mP of the positive control group)/(mP of the blank control group−mP of the positive control group))×100%.

[1] = tested on: NCI-H358 cell (human non-small cell lung cancer cell); assay: Inhibition of the proliferation activity of NCI-H358 cell (CellTiter-Glo); format: cell-based; conditions: 120 h, 5 days
Protocol: Test Example 4: Experiment on the Inhibition of the Proliferation Activity of NCI-H358 Cell (Human Non-Small Cell Lung Cancer Cell)
cell: NCI-H358 (Nanjing CoBioer);
kit: CellTiter-Glo® Luminescent Cell Viability Assay Kit (Promega).
inoculation amount of cell: 1500 cells/well;
incubation conditions for compounds: 37° C., 5% CO2;
incubation duration: 5 days;
detecting temperature: room temperature;
chemiluminescence detection using the BMG PHERAstar FS reader.
Cells were cultured in a medium containing 10% fetal bovine serum under the culture conditions of 37° C. and 5% CO2. An appropriate amount of cells were plated into a 96-well plate and cultured overnight in an incubator to allow the cells to adhere to the wall. The following day, the medium was removed and a complete medium containing a pre-diluted compound was added and incubated at 37° C. for 5 days. On the fifth day, the detection reagent CellTiter-Glo® was added into each well. Chemiluminescence was adopted to detect the relative luminescence units (RLUs) of the wells.
The result of a well containing cell-free medium, treated with CellTiter-Glo®, was obtained as the blank value. Cell viability (%)=(sample RLU−blank RLU)/(vehicle RLU−blank RLU)×100%, and maximum inhibition rate (%)=100%−cell viabilitymax. conc. (%). The half maximal inhibitory concentration (IC50) of the compound was calculated by fitting the curve according to the four-parameter logistic model.

T2 sequence (P10635 whole entry): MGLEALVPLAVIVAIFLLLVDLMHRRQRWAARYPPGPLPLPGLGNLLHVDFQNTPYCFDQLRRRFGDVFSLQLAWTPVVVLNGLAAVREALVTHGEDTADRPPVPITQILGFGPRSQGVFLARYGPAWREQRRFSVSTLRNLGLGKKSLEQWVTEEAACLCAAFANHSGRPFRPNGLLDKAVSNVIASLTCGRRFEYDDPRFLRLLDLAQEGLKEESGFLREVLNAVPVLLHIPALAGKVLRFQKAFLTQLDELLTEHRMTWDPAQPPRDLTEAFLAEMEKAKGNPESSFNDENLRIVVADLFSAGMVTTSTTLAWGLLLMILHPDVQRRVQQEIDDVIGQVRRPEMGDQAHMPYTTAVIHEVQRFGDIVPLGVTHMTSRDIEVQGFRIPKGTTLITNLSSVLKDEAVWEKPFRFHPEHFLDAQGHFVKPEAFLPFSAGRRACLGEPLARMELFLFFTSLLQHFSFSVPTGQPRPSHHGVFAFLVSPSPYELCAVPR
T3 sequence (Q12809 whole entry): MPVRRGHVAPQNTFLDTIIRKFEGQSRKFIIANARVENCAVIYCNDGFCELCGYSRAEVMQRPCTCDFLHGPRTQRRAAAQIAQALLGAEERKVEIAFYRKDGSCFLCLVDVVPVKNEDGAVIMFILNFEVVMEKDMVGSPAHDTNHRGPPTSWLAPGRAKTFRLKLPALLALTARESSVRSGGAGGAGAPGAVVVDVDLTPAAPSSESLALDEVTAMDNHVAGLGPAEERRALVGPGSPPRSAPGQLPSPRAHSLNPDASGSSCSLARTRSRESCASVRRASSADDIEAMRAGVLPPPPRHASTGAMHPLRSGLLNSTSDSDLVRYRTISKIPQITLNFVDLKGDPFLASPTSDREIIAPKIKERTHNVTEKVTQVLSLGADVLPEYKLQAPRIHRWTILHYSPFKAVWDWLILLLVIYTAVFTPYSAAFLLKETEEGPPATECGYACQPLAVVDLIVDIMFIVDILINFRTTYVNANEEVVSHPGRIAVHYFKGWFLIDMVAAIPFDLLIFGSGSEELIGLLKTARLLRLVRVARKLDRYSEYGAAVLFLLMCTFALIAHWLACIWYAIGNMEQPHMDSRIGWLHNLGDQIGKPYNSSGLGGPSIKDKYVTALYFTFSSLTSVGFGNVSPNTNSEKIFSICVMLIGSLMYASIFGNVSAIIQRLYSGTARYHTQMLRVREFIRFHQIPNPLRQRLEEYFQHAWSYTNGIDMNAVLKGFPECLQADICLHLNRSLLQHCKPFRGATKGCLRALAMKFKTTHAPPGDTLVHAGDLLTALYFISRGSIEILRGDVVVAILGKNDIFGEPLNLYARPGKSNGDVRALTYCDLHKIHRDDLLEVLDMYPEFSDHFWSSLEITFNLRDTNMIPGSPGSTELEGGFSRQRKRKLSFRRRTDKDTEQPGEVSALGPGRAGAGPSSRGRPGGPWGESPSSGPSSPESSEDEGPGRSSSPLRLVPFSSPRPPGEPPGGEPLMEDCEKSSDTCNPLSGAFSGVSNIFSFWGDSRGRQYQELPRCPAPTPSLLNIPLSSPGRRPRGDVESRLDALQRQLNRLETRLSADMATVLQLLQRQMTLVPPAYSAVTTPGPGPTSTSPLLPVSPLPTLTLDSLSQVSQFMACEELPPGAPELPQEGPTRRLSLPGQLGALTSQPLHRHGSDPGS

IC50 (CYP1A2)	SMILES	pIC50 (CYP1A2)	pIC50 (CYP2D6)	pIC50 (hERG)	pIC50 [1]	IC50 (CYP2D6)
	Cc1nc(N2CCC3(CC2)CO[C@@H](C)[C@H]3N)c(CO)nc1Sc1ccnc(N2CCCC2CO)c1Cl (some centres unmarked) [Example 1]	< 5.00	< 5.00			
	C[C@@H]1OCC2(CCN(c3ncc(Sc4ccnc(N5CCCC5CO)c4Cl)nc3CO)CC2)[C@@H]1N (some centres unmarked) [Example 2]	< 5.00		< 5.00	7.40	> 10 µM
	C[C@@H]1OCC2(CCN(c3ncc(Sc4ccnc(N5CC(CC#N)C5)c4Cl)nc3CO)CC2)[C@@H]1N [Example 5, 2-(1-(4-(5-((3S,4S)-4-amino-3-methyl-2-oxa-8-azaspiro[4.5]decan-8-yl)-6-(hydroxymethyl)pyrazin-2-ylthio)-3-chloropyridin-2-yl)azetidin-3-yl)acetonitrile]	< 5.00	< 5.00		7.47	
	C[C@@H]1OCC2(CCN(c3ncc(Sc4ccnc(N5CC(CO)C5)c4Cl)nc3CO)CC2)[C@@H]1N [Example 6, (3-((3S,4S)-4-amino-3-methyl-2-oxa-8-azaspiro[4.5]decan-8-yl)-6-(3-chloro-2-(3-(hydroxymethyl)azetidin-1-yl)pyridin-4-ylthio)pyrazin-2-yl)methanol]	< 5.00	< 5.00		7.13	
	CC(C)(O)C1CN(c2nccc(Sc3cnc(N4CCC5(CC4)COC[C@H]5N)c(CO)n3)c2Cl)C1 [Example 13, (S)-2-(1-(4-(5-(4-amino-2-oxa-8-azaspiro[4.5]decan-8-yl)-6-(hydroxymethyl)pyrazin-2-ylthio)-3-chloropyridin-2-yl)azetidin-3-yl)propan-2-ol]	< 5.00		< 5.00	6.59	> 10 µM
	C[C@@H]1OCC2(CCN(c3ncc(Sc4ccnc(NCC5(O)CC5)c4Cl)nc3CO)CC2)[C@@H]1N [Example 15, 1-((4-(5-((3S,4S)-4-amino-3-methyl-2-oxa-8-azaspiro[4.5]decan-8-yl)-6-(hydroxymethyl)pyrazin-2-ylthio)-3-chloropyridin-2-ylamino)methyl)cyclopropan-1-ol]	< 5.00	< 5.00	< 5.00	7.40	
	CC(O)C1CN(c2nccc(Sc3cnc(N4CCC5(CC4)CO[C@@H](C)[C@H]5N)c(CO)n3)c2Cl)C1 (stereo partly drawn) [Example 17, 1-(1-(4-(5-((3S,4S)-4-amino-3-methyl-2-oxa-8-azaspiro[4.5]decan-8-yl)-6-(hydroxymethyl)pyrazin-2-ylthio)-3-chloropyridin-2-yl)azetidin-3-yl)ethan-1-ol]	< 5.00	< 5.00		7.41	
	C[C@@H]1OCC2(CCN(c3ncc(Sc4ccnc(N5CCCC5CC(N)=O)c4Cl)nc3CO)CC2)[C@@H]1N (stereo partly drawn) [Example 19, 2-(1-(4-(5-((3S,4S)-4-amino-3-methyl-2-oxa-8-azaspiro[4.5]decan-8-yl)-6-(hydroxymethyl)pyrazin-2-ylthio)-3-chloropyridin-2-yl)pyrrolidin-2-yl)acetamide]	< 5.00		< 5.00	6.66	> 10 µM
	COCC1CN(c2nccc(Sc3cnc(N4CCC5(CC4)CO[C@@H](C)[C@H]5N)c(CO)n3)c2Cl)C1 [Example 21, (3-((3S,4S)-4-amino-3-methyl-2-oxa-8-azaspiro[4.5]decan-8-yl)-6-(3-chloro-2-(3-(methoxymethyl)azetidin-1-yl)pyridin-4-ylthio)pyrazin-2-yl)methanol]	< 5.00	< 5.00		7.52	
> 10 µM	CC(C)(O)C1CN(c2nccc(Sc3cnc(N4CCC5(CC4)Oc4ccccc4[C@H]5N)c(CO)n3)c2Cl)C1 [Example 22, (R)-2-(1-(4-(5-(3-amino-3H-spiro[benzofuran-2,4′-piperidin]-1′-yl)-6-(hydroxymethyl)pyrazin-2-ylthio)-3-chloropyridin-2-yl)azetidin-3-yl)propan-2-ol]				7.51	> 10 µM
> 10 µM	CC(C)(O)C1CN(c2nccc(Sc3cnc(N4CCC5(CC4)Cc4ccccc4[C@H]5N)c(CO)n3)c2Cl)C1 [Example 23, (S)-2-(1-(4-(5-(1-amino-1,3-dihydrospiro[indene-2,4′-piperidin]-1′-yl)-6-(hydroxymethyl)pyrazin-2-ylthio)-3-chloropyridin-2-yl)azetidin-3-yl)propan-2-ol]				8.30	> 10 µM
	Cc1nc(N2CCC3(CC2)CO[C@@H](C)[C@H]3N)c(CO)nc1Sc1ccnc(N2CC(CS(C)(=O)=O)C2)c1Cl [Example 25, (3-((3S,4S)-4-amino-3-methyl-2-oxa-8-azaspiro[4.5]decan-8-yl)-6-(3-chloro-2-(3-(methylsulfonylmethyl)azetidin-1-yl)pyridin-4-ylthio)-5-methylpyrazin-2-yl)methanol]	< 5.00	< 5.00	< 5.00	6.82	
	C[C@@H]1OCC2(CCN(c3ncc(Sc4ccnc(N5CC(CS(C)(=O)=O)C5)c4Cl)nc3CO)CC2)[C@@H]1N [Example 26, (3-((3S,4S)-4-amino-3-methyl-2-oxa-8-azaspiro[4.5]decan-8-yl)-6-(3-chloro-2-(3-(methylsulfonylmethyl)azetidin-1-yl)pyridin-4-ylthio)pyrazin-2-yl)methanol]	< 5.00	< 5.00	< 5.00	7.49	
> 10 µM	CC(C)(O)C1CN(c2nccc(Sc3cnc(N4CCC5(CC4)Cc4ncccc4[C@H]5N)c(CO)n3)c2Cl)C1 [Example 43, (S)-2-(1-(4-(5-(5-amino-5,7-dihydrospiro[cyclopenta[b]pyridine-6,4′-piperidin]-1′-yl)-6-(hydroxymethyl)pyrazin-2-ylthio)-3-chloropyridin-2-yl)azetidin-3-yl)propan-2-ol]				8.10	> 10 µM
